One block for each compound: values may come before it. Activity calls are given as the source filed them.
Legend:
[1] = molecular target: Matrix metalloproteinase-14 (Homo sapiens, UniProt P50281); experiment: Dose Response confirmation of uHTS hits for a small molecule inhibitors of MT1-MMP activation in a fluorescence assay set 1.; format: functional
[2] = molecular target: T1, Corticotropin-releasing factor receptor 2/Corticotropin-releasing factor-binding protein (Homo sapiens, UniProt P24387+Q13324); experiment: activators of CRF receptor 2 with binding protein – uHTS hits, confirmation (AID 602473); format: functional; settings: read-out: EC50_Mean
T1 sequence (Q13324 whole entry): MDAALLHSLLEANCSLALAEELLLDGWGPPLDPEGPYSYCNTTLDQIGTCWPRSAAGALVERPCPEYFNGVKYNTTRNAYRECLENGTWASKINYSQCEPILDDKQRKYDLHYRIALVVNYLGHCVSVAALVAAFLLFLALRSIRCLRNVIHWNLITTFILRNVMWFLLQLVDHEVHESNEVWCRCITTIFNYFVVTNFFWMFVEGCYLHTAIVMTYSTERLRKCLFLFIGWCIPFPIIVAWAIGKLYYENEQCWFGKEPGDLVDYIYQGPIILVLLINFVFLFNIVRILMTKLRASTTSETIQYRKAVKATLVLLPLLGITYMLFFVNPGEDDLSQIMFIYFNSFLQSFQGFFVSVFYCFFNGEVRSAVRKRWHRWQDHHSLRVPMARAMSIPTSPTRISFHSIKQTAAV
T1 sequence (P24387 whole entry): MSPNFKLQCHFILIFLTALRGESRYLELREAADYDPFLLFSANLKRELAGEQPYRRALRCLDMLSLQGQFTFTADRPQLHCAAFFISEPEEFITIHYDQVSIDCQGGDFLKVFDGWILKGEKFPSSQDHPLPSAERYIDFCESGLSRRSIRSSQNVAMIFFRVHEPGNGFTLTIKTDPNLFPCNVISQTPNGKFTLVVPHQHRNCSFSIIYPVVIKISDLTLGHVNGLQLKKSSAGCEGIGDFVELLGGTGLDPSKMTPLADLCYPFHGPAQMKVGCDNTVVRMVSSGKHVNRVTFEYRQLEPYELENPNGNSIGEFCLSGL

[3] = molecular target: T2, Aminopeptidase N (Plasmodium falciparum FcB1/Columbia, UniProt O96935); experiment: P. falciparum M1AAP inhibitors, biochemical, fluorogenic H-Leu-NHMec substrate, 1536-well (AID 1445); design: species or system Plasmodium falciparum 3D7, 3D7
T2 sequence (O96935 whole entry): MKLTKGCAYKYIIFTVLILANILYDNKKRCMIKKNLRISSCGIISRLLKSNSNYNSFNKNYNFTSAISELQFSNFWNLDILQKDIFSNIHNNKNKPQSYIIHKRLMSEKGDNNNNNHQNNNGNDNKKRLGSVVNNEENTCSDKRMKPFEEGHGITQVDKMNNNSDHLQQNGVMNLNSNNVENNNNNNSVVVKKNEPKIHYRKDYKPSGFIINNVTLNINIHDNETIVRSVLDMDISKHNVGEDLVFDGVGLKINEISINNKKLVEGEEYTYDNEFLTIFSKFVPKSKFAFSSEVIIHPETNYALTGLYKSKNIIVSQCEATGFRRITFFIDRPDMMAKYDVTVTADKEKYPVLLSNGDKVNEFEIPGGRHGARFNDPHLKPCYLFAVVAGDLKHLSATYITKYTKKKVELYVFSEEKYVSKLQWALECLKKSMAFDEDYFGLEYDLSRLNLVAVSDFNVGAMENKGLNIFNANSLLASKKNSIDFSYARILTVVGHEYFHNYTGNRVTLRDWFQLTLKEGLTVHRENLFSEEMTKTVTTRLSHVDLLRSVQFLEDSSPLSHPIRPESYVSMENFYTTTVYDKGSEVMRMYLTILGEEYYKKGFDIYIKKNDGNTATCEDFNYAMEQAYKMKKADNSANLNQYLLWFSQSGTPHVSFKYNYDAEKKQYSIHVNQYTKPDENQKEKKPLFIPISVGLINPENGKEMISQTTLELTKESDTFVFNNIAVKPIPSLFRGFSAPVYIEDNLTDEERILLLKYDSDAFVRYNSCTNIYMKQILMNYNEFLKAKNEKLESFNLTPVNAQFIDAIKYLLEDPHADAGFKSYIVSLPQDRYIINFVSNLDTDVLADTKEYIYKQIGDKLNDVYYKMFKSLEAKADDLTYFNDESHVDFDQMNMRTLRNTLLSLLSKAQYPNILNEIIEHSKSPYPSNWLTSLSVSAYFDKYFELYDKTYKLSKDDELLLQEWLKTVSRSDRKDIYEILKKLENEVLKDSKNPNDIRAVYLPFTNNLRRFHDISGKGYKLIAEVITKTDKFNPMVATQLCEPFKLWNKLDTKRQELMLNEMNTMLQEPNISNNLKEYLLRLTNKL

[4] = CRF-BP/CRF-R2 complex antagonists, dose response, cell-based, uHTS hits, 384-well (AID 651639); format: functional, Homo sapiens; settings: read-out: IC50_Mean
[5] = molecular target: T1, Corticotropin-releasing factor receptor 2/Corticotropin-releasing factor-binding protein; experiment: Dose Response confirmation of uHTS hits for small molecule antagonists of the CRF-binding protein and CRF-R2 receptor complex.; format: functional; settings: read-out: IC50_Mean
[6] = Shn3 3'UTR reporter inhibitors, dose response, cell-based, Clone20 osteoblasts, firefly luciferase, cherry-picked (AID 624132); format: functional;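 note: firefly luciferase luminescence from reporter carrying the Shn3 3'UTR in osteoblasts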
[7] = cells; format: functional, cell-based; settings: HEK-CNG
[8] = molecular target: Galanin receptor type 3 (Homo sapiens, UniProt O60755); experiment: Fluorescence-based cell-based primary high throughput dose response assay to identify antagonists of the Galanin Receptor 3 (GalR3).; format: functional
[9] = control 3'UTR Renilla luciferase suppression, dose response, counter-screen for Shn3 inhibitor project, cell-based, Clone20-Shn3RL, cherry-picked (AID 624133); format: functional
[10] = cytotoxicity in HEK-293T cells, dose response, cytotoxicity control for TCR NF-kB inhibitor project, luminescence, T-cell screen hits (AID 489026); format: functional, cell-based;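 note: cells exposed to compound about 14 hours before the viability readout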
[11] = HepG2 cell cytotoxicity, dose response, cytotoxicity control for Shn3 inhibitor project, CellTiter-Glo, cherry-picked (AID 624134); format: functional, cell-based
[12] = test system: INS1; experiment: beta cell apoptosis inhibitors, cytokine rescue, dose response, luminescence, retest (AID 449756); format: functional, cell-based; settings: Rattus norvegicus;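 note: cell death triggered by IL-1 beta plus TNF-alpha plus IFN-gamma mixture; protective hits raise ATP signal compared with cytokine alone wells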
[13] = cytotoxicity in MIN6 insulinoma cells, dose response, cytotoxicity control, cell-based, mouse insulinoma (AID 2122); format: functional;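 note: confirmatory high-throughput counterscreen run to flag cytotoxic compounds; mouse MIN-6 beta cells carrying an insulin promoter eGFP reporter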
[14] = insulin promoter down-regulators in MIN6 cells, imaging, high-content screening, mouse beta cells (AID 1628); format: functional
[15] = HEK293T cytotoxicity, dose response, cytotoxicity control for miR-122 modulator project, cell-based, activator set, cherry-pick (AID 720690); format: functional;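 note: HEK293T human cells scored for general mammalian cytotoxicity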
[16] = molecular target: T3, DNA repair protein RAD52 homolog (Homo sapiens, UniProt P43351); format: functional, biochemical
T3 sequence (P43351 whole entry): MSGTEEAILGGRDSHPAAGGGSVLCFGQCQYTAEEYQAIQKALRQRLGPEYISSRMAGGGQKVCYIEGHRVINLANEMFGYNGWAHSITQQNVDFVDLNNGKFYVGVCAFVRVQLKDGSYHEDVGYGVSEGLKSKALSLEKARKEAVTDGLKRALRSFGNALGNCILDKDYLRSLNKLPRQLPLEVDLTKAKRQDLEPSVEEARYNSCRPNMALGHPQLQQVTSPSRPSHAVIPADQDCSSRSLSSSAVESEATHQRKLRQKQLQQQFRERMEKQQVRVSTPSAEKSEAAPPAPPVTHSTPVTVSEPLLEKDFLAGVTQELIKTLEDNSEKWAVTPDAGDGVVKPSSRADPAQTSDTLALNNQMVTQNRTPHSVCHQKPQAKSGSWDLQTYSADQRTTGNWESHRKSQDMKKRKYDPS

[17] = HEK293T cytotoxicity, dose response, cytotoxicity control for miR-122 modulator project, cell-based, inhibitor set, cherry-pick, set 2 (AID 720697); format: functional
[18] = cytotoxicity dependent on PAX8, dose response, cell-based, plate reader, dry powder (AID 743049); format: functional
[19] = NIH:OVCAR-3 ovarian cancer cell cytotoxicity, dose response, PAX8 inhibitor project, plate reader, dry powder samples (AID 743044); format: functional, cell-based
[20] = PAX5 activity inhibitors, dose response, selectivity assay for PAX8 inhibitor project, cell-based, plate reader, dry powder samples (AID 743047); format: functional;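 note: HEK293 cells carrying a Pax5 driven CD19 promoter luciferase reporter; potency of inhibitors that lower reporter luminescence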
[21] = molecular target: Paired box protein Pax-8 (Homo sapiens, UniProt Q06710); experiment: inhibitors of PAX8-driven TPO luciferase reporter, dose response, RMG-I cells, cherry-pick (AID 687027); format: functional, cell-based;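 note: luciferase reporter driven by Pax8 target thyroperoxidase promoter measured by SteadyGlo luminescence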
[22] = cytotoxicity in COV434 cells, dose response, cytotoxicity control for PAX8 inhibitor project, cell-based, plate reader, dry powder, SA7 (AID 743145); format: functional
[23] = cytotoxicity in OV-90 ovarian cancer cells, dose response, PAX8 inhibitor project, cell-based, plate reader, dry powder, SA8 (AID 743149); format: functional

Galanin receptor type 3, sequence (O60755 whole entry): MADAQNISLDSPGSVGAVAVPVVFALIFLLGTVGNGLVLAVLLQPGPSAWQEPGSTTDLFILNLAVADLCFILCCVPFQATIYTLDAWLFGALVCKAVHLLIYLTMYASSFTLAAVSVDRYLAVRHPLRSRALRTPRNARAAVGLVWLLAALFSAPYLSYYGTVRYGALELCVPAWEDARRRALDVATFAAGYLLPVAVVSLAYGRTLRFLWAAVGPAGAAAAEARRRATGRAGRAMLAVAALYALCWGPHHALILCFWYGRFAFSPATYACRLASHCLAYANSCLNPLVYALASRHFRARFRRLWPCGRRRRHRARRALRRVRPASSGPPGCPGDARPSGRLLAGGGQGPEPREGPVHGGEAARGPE
Paired box protein Pax-8, sequence (Q06710 whole entry): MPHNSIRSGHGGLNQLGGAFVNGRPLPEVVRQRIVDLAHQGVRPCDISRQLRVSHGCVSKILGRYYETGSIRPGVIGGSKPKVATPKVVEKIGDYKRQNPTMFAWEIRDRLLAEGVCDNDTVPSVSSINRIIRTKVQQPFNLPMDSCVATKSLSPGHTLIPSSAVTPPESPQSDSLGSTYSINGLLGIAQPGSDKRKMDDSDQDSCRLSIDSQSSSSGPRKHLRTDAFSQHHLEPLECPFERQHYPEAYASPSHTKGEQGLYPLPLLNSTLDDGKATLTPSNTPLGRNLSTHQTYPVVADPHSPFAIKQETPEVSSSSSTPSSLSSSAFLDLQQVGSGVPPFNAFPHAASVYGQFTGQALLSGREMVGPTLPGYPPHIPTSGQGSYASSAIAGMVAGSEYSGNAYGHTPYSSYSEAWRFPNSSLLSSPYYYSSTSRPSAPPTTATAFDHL

- IC50 [1]: > 80 µM (inactive)
SMILES: CNc1ccc(N=Nc2cc[n+]([O-])cc2C)cc1C

- EC50 [2]: > 53 µM (inactive)
- IC50 [3]: 69.2 µM (active)
- IC50 [4]: > 20 µM (inactive)
- IC50 [5]: 18.4 µM (active)
SMILES: Cc1ccc(S(=O)(=O)NC2=NC(=O)/C(=C/c3ccccc3)S2)cc1

SMILES: Cc1cc(C)nc(SCC(=O)Nc2ccnc3ccccc23)n1
- AC50 [6]: 0.462 µM (active)
- EC50 [7]: > 29.9 µM (inactive)
- IC50 [8]: 0.874 µM (active)
- AC50 [9]: < 0.26 µM (active)
- IC50 [10]: > 80 µM (inactive)
- AC50 [11]: > 70 µM (inactive)
- AC50 [12]: 4.76 µM (active)
- IC50 [13]: 0.398 µM (active)
- IC50 [14]: 0.695 µM (active)

SMILES: COc1ccc(-c2c(-c3ccccc3)c(C(=O)C(=O)NCCCN(C)C)n3ccc4cc(OC)c(OC)cc4c23)cc1OC
- AC50 [15]: 17.2 µM (active)
- AC50 [16]: 3.15 µM (active)
- AC50 [17]: 4.39 µM (active)

SMILES: CC(C)c1cc(C(=O)OCC(=O)N2CCN(C(=O)c3ccco3)CC2)c(O)c(C(C)C)c1
- AC50 [18]: 10.8 µM (active)
- AC50 [19]: 49.9 µM (active)
- AC50 [20]: 45.8 µM (active)
- AC50 [21]: 1.58 µM (active)
- AC50 [22]: 13.7 µM (active)
- AC50 [23]: 81.3 µM (active)
